Experimental data taken from patent US12558428B2, “Heterobifunctional compounds and their use in treating disease” (Halda Therapeutics OpCo, Inc., priority 2024, dated 2026).
Like-named read-outs stand apart in the source and are kept apart here.

Legend:
Type in all cases: cell-based
[1] = system: MCF7 cells (ATCC #HTB-22); experiment: Cellular growth inhibition assay, MCF7 cells purchased from ATCC; conditions: Homo sapiens, MCF7, 144 h, Table 8-A; MCF7 cells purchased from ATCC; six days; CellTiter-Glo; read-out: GI50
Procedure: Exemplary compounds were tested for the ability to inhibit the proliferation of MCF7 cells.
MCF7 cells (ATCC #HTB-22 or ECACC #86012803) were cultured in RPMI 1640 medium supplemented with 10% heat-inactivated fetal bovine serum, 1% pen-strep, and 0.2 U/ml insulin. Cells were seeded in 25 μL of RPMI 1640 medium supplemented with 10% heat-inactivated fetal bovine serum, 1% pen-strep, 0.2 U/ml insulin in poly-D-lysine treated, black clear-bottom 384-well plates at 225 cells/well for MCF7 cells purchased from ECACC or 1,500 cells/well for MCF7 cells purchased from ATCC. Following seeding, plates were spun at 300×g for 30 seconds and cultured at 37° C. with 5% CO2 in a humidified tissue culture incubator.
At 24 hours after seeding, compounds were titrated in 100% DMSO and diluted in RPMI 1640 medium supplemented with 10% heat-inactivate fetal bovine serum, 1% pen-strep, and 0.2 U/ml insulin. A 25 μL aliquot of the compound/media mixture was added to cells, bringing the total volume in each well to 50 μL. An equal volume of DMSO without compound was used as a negative control. After treatment, plates were spun at 300×g for 30 seconds, then cultured at 37° C. with 5% CO2 for six days in a humidified tissue culture incubator.
On Day 6 of treatment, cell viability was quantified with CellTiter-Glo 2.0 reagent (Promega). Plates were equilibrated to room temperature for 30 minutes, then 25 μL of CellTiter-Glo 2.0 reagent was added to cells, bringing the total volume in each well to 75 μL. After reagent was added, plates were mixed on a shaker for two minutes at 500 rpm and then incubated at room temperature for 10 minutes. Following incubation, plates were spun at 3,000×g for 30 seconds, sealed with an optical adhesive cover, and luminescence readings were measured with an EnVision Plate Reader.
Data was normalized to 0 luminescence for baseline. A four-parameter, non-linear regression curve fit was applied to dose-response data in GraphPad Prism data analysis software to determine the half maximal growth inhibitory concentration (GI50) for each compound.

[2] = system: T-Rex 293 cells lacking increased expression of estrogen receptor alpha protein; experiment: Cellular growth inhibition assay, T-Rex 293 cells, (−) doxycycline; conditions: T-REx-293, 72 h, 72 hours
Method in brief: (§1)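 Viability read-out was CellTiter-Glo 2.0 luminescence after 72 h compound exposure, normalized to zero luminescence and fitted by four-parameter regression to give GI50. Cells were an ERα-inducible T-Rex 293 clone cultured with or without 3 ng/mL doxycycline in charcoal-stripped, phenol red-free medium.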

[3] = system: T-Rex 293 cells having increased expression of estrogen receptor alpha protein; experiment: Cellular growth inhibition assay, T-Rex 293 cells, (+) doxycycline; conditions: T-REx-293, 72 h, 72 hours
Method in brief: as §1

[4] = T-Rex 293 cells without doxycycline, CellTiter-Glo 2.0, read-out: (−) Dox TRex ERa (GI50)
[5] = T-Rex 293 cells with doxycycline-induced ERα expression, CellTiter-Glo 2.0, read-out: (+) Dox TRex ERa (GI50)

## Cc1sc2c(c1C)C(c1ccc(N3CCN(CC4CCN(c5ccc([C@@H]6c7ccc(O)cc7CC[C@@H]6c6ccccc6)cc5)CC4)CC3)cc1)=N[C@@H](Cc1ncco1)c1nnc(C)n1-2 [I-12, (5R,6S)-6-phenyl-5-(4-(4-((4-(4-((S)-2,3,9-trimethyl-6-(oxazol-2-ylmethyl)-6H-thieno[3,2-f][1,2,4]triazolo[4,3-a][1,4]diazepin-4-yl)phenyl)piperazin-1-yl)methyl)piperidin-1-yl)phenyl)-5,6,7,8-tetrahydronaphthalen-2-ol]
[1]
  GI50: < 50 nM
[2]; Table 7-A, T-Rex 293 cells without doxycycline (lacking increased ERα expression), CellTiter-Glo, read-out: (−) Dox GI50
  GI50: 500 to 2500 nM
[3]; Table 7-A, T-Rex 293 cells with doxycycline (increased ERα expression), CellTiter-Glo, read-out: (+) Dox GI50
  GI50: < 50 nM

## Cc1sc2c(c1C)C(c1ccc(OCCC3CCN(CCOc4ccc(C(=O)c5c(-c6ccc(O)cc6)sc6cc(O)ccc56)cc4)CC3)cc1)=N[C@@H](Cc1ncco1)c1nnc(C)n1-2 [I-13, (S)-(6-hydroxy-2-(4-hydroxyphenyl)benzo[b]thiophen-3-yl)(4-(2-(4-(2-(4-(2,3,9-trimethyl-6-(oxazol-2-ylmethyl)-6H-thieno[3,2-f][1,2,4]triazolo[4,3-a][1,4]diazepin-4-yl)phenoxy)ethyl)piperidin-1-yl)ethoxy)phenyl)methanone]
[1]
  GI50: < 50 nM
[2]; [4]
  GI50: 50 to 500 nM
[3]; [5]
  GI50: < 50 nM

## Cc1sc2c(c1C)C(c1ccc(OCCCCC3CCN(c4ccc(C(=O)c5c(-c6ccc(Br)cc6)sc6cc(O)ccc56)cc4)CC3)cc1)=N[C@@H](Cc1ncco1)c1nnc(C)n1-2 [I-14, (S)-(2-(4-bromophenyl)-6-hydroxybenzo[b]thiophen-3-yl)(4-(4-(4-(4-(2,3,9-trimethyl-6-(oxazol-2-ylmethyl)-6H-thieno[3,2-f][1,2,4]triazolo[4,3-a][1,4]diazepin-4-yl)phenoxy)butyl)piperidin-1-yl)phenyl)methanone]
[1]
  GI50: 500 to 2500 nM
[2]; [4]
  GI50: > 2500 nM
[3]; [5]
  GI50: 50 to 500 nM

## Cc1sc2c(c1C)C(c1ccc(OCCC3CCN(c4ccc(C(=O)c5c(-c6ccc(O)cc6)sc6cc(O)ccc56)cc4)CC3)cc1)=N[C@@H](Cc1ncco1)c1nnc(C)n1-2 [I-15, (S)-(6-hydroxy-2-(4-hydroxyphenyl)benzo[b]thiophen-3-yl)(4-(4-(2-(4-(2,3,9-trimethyl-6-(oxazol-2-ylmethyl)-6H-thieno[3,2-f][1,2,4]triazolo[4,3-a][1,4]diazepin-4-yl)phenoxy)ethyl)piperidin-1-yl)phenyl)methanone]
[1]
  GI50: < 50 nM
[2]; [4]
  GI50: < 50 nM
[3]; [5]
  GI50: < 50 nM

## Cc1sc2c(c1C)C(c1ccc(Cl)cc1)=N[C@@H](CC(=O)NCCCCCCCOc1ccc(C(=O)c3c(-c4ccc(O)cc4)sc4cc(O)ccc34)cc1)c1nnc(C)n1-2 [I-16, (S)-2-(4-(4-chlorophenyl)-2,3,9-trimethyl-6H-thieno[3,2-f][1,2,4]triazolo[4,3-a][1,4]diazepin-6-yl)-N-(7-(4-(6-hydroxy-2-(4-hydroxyphenyl)benzo[b]thiophene-3-carbonyl)phenoxy)heptyl)acetamide]
[1]
  GI50: 50 to 500 nM
[2]; [4]
  GI50: > 2500 nM
[3]; [5]
  GI50: > 2500 nM

## Cc1sc2c(c1C)C(c1ccc(Cl)cc1)=N[C@@H](CC(=O)NCCCCOCCOc1ccc(C(=O)c3c(-c4ccc(O)cc4)sc4cc(O)ccc34)cc1)c1nnc(C)n1-2 [I-17, (S)-2-(4-(4-chlorophenyl)-2,3,9-trimethyl-6H-thieno[3,2-f][1,2,4]triazolo[4,3-a][1,4]diazepin-6-yl)-N-(4-(2-(4-(6-hydroxy-2-(4-hydroxyphenyl)benzo[b]thiophene-3-carbonyl)phenoxy)ethoxy)butyl)acetamide]
[1]
  GI50: 50 to 500 nM
[2]; [4]
  GI50: 500 to 2500 nM
[3]; [5]
  GI50: 500 to 2500 nM

## Cc1sc2c(c1C)C(c1ccc(CC3CC4(CCN(CCOc5ccc(C(=O)c6c(-c7ccc(O)cc7)sc7cc(O)ccc67)cc5)CC4)C3)cc1)=N[C@@H](C)c1nnc(C)n1-2 [I-19, (S)-(6-hydroxy-2-(4-hydroxyphenyl)benzo[b]thiophen-3-yl)(4-(2-(2-(4-(2,3,6,9-tetramethyl-6H-thieno[3,2-f][1,2,4]triazolo[4,3-a][1,4]diazepin-4-yl)benzyl)-7-azaspiro[3.5]nonan-7-yl)ethoxy)phenyl)methanone]
[1]
  GI50: < 50 nM
[2]; [4]
  GI50: 50 to 500 nM
[3]; [5]
  GI50: < 50 nM

## Cc1sc2c(c1C)C(c1ccc(C#CC3CC4(CCN(CCOc5ccc(C(=O)c6c(-c7ccc(O)cc7)sc7cc(O)ccc67)cc5)CC4)C3)cc1)=N[C@@H](Cc1ncco1)c1nnc(C)n1-2 [I-20, (S)-(6-hydroxy-2-(4-hydroxyphenyl)benzo[b]thiophen-3-yl)(4-(2-(2-((4-(2,3,9-trimethyl-6-(oxazol-2-ylmethyl)-6H-thieno[3,2-f][1,2,4]triazolo[4,3-a][1,4]diazepin-4-yl)phenyl)ethynyl)-7-azaspiro[3.5]nonan-7-yl)ethoxy)phenyl) methanone]
[1]
  GI50: < 50 nM
[2]; [4]
  GI50: < 50 nM
[3]; [5]
  GI50: < 50 nM

## Cc1sc2c(c1C)C(c1ccc(OCCCCC3CCN(c4ccc(C(=O)c5c(-c6ccc(O)cc6)sc6cc(O)ccc56)cc4)CC3)cc1)=N[C@@H](Cc1ncco1)c1nnc(C)n1-2 [I-21, (S)-(6-hydroxy-2-(4-hydroxyphenyl)benzo[b]thiophen-3-yl)(4-(4-(4-(4-(2,3,9-trimethyl-6-(oxazol-2-ylmethyl)-6H-thieno[3,2-f][1,2,4]triazolo[4,3-a][1,4]diazepin-4-yl)phenoxy)butyl)piperidin-1-yl)phenyl)methanone]
[1]
  GI50: < 50 nM
[2]; [4]
  GI50: 50 to 500 nM
[3]; [5]
  GI50: < 50 nM

## Cn1cc(-c2cc(C(C)(C)O)ccc2Oc2ccc(N3CC(CC4CCN(c5ccc(C(=O)c6c(-c7ccc(O)cc7)sc7cc(O)ccc67)cc5)CC4)C3)cc2)c2cc[nH]c2c1=O [I-22, 4-(2-(4-(3-((1-(4-(6-hydroxy-2-(4-hydroxyphenyl)benzo[b]thiophene-3-carbonyl)phenyl)piperidin-4-yl)methyl)azetidin-1-yl)phenoxy)-5-(2-hydroxy-propan-2-yl)phenyl)-6-methyl-1,6-dihydro-7H-pyrrolo[2,3-c]pyridin-7-one]
[1]
  GI50: < 50 nM
[2]; [4]
  GI50: 50 to 500 nM
[3]; [5]
  GI50: < 50 nM

## Cc1sc2c(c1C)C(c1ccc(OCCOCCOc3cc(F)c([C@@H]4c5[nH]c6ccccc6c5C[C@@H](C)N4CC(C)(C)F)c(F)c3)cc1)=N[C@@H](C)c1nnc(C)n1-2 [I-23, (S)-4-(4-(2-(2-(3,5-difluoro-4-((1R,3R)-2-(2-fluoro-2-methylpropyl)-3-methyl-2,3,4,9-tetrahydro-1H-pyrido[3,4-b]indol-1-yl)phenoxy)ethoxy)ethoxy)phenyl)-2,3,6,9-tetramethyl-6H-thieno[3,2-f][1,2,4]triazolo[4,3-a][1,4]diazepine]
[1]
  GI50: 50 to 500 nM
[2]; [4]
  GI50: 500 to 2500 nM
[3]; [5]
  GI50: 500 to 2500 nM

## Cn1cc(-c2cc(C(C)(C)O)ccc2Oc2ccc(CC3CC4(CCN(CCOc5ccc(C(=O)c6c(-c7ccc(O)cc7)sc7cc(O)ccc67)cc5)CC4)C3)cc2)c2cc[nH]c2c1=O [I-24, 4-(2-(4-((7-(2-(4-(6-hydroxy-2-(4-hydroxyphenyl)benzo[b]thiophene-3-carbonyl)phenoxy)ethyl)-7-azaspiro[3.5]nonan-2-yl)methyl)phenoxy) -5-(2-hydroxypropan-2-yl)phenyl)-6-methyl-1,6-dihydro-7H-pyrrolo[2,3-c]pyridin-7-one]
[1]
  GI50: < 50 nM
[2]; [4]
  GI50: 50 to 500 nM
[3]; [5]
  GI50: 50 to 500 nM
